These results are taken from patent publication US8334294B2, “4,8-diphenyl-polyazanaphthalene derivatives” (Almirall, S.A., priority 2007, dated 2012).

A word on the IC50: it is the concentration that gives 50% inhibition.

Each structure is given as a SMILES string.

T1 sequence (Q16539 whole entry): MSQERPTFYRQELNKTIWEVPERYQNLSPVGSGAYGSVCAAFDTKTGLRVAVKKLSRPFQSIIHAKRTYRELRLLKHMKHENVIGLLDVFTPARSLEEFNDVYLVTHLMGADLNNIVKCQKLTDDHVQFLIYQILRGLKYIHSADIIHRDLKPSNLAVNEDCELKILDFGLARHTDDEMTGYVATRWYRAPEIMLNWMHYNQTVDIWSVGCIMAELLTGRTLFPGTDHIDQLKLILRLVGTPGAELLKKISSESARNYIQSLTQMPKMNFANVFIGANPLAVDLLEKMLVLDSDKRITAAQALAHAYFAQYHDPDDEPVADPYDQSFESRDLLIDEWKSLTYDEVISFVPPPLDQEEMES

The assay concerns the target T1, human p38alfa (SAPKa) enzyme (Homo sapiens, UniProt Q16539).
T1 construct: purchased University of Dundee
Put plainly: p38 enzymatic activity inhibition assay (FRET, ATF2 substrate). The assay is classed as biochemical. The settings on record: 1 h pre-incubation; ATF2 0.62 μM, ATP 60 μM; 1 h at 25° C.; read-out: p38α IC50. As to the method:
Enzymatic activity assay was performed in 96-well microtiter plates (Corning, catalog number #3686) using a total volume of 50 μl of an assay buffer composed of 50 mM HEPES pH 7.5, 10 mM MgCl2, 1.75 mM Na3VO4.
Various concentrations of the test compound or vehicle controls were pre-incubated for one hour with 0.055 μg/ml of the human p38alfa (SAPKa) enzyme (obtained from University of Dundee). The reaction started by addition of biotinylated ATF2 substrate and ATP in concentrations around their Km values (final concentration 0.62 μM and 60 μM respectively) and took place for one hour at 25° C. Addition of the detection reagents, streptavidin-XL665 and anti-phosphoresidue antibody coupled to Europium cryptate, caused the juxtaposition of the cryptate and the XL665 fluorophore, resulting in fluorescence energy transfer (FRET). The FRET intensity depends on the amount of bounded cryptate antibody, which is proportional to the extent of substrate phosphorylation. FRET intensity was measured using Victor 2V spectrofluorometer. Data were analyzed by non-linear regression (Hill equation) to generate a dose-response curve. The calculated IC50 value is the concentration of the test compound that caused a 50% decrease in the maximal FRET intensity.
`O=C(O)c1cc(-c2ccc(F)cc2F)c2cc[n+]([O-])c(-c3c(F)cccc3F)c2n1` [Example 2, 4-(2,4-Difluorophenyl)-8-(2,6-difluorophenyl)-1,7-naphthyridine-2-carboxylic acid 7-oxide]: the 50% inhibitory concentration (IC50) turned out to be 22 nM. To `O=c1cc(-c2ccc(F)cc2Cl)c2cc[n+]([O-])c(-c3c(F)cccc3F)c2[nH]1` [Example 8, 4-(2-Chloro-4-fluorophenyl)-8-(2,6-difluorophenyl)-1,7-naphthyridin-2(1H)-one 7-oxide] belongs 6 nM. Consider `CN(C)CCNc1cc(-c2ccc(F)cc2Cl)c2cc[n+]([O-])c(-c3c(F)cccc3F)c2n1` [Example 10, N′-[4-(2-Chloro-4-fluorophenyl)-8-(2,6-difluorophenyl)-7-oxido-1,7-naphthyridin-2-yl]-N,N-dimethylethane-1,2-diamine], for which the IC50 was 14 nM. For `O=c1cc(-c2ccc(F)cc2Cl)c2cc[n+]([O-])c(-c3c(Cl)cccc3Cl)c2[nH]1` [Example 12, 4-(2-Chloro-4-fluorophenyl)-8-(2,6-dichlorophenyl)-1,7-naphthyridin-2(1H)-one 7-oxide], the IC50 is 3.3 nM. With `O=c1cc(-c2ccccc2Cl)c2ccnc(-c3c(Cl)cccc3Cl)c2[nH]1` [Example 17, 4-(2-Chlorophenyl)-8-(2,6-dichlorophenyl)-1,7-naphthyridin-2(1H)-one], the IC50 worked out at 13 nM. With `O=c1cc(-c2ccccc2Cl)c2cc[n+]([O-])c(-c3c(Cl)cccc3Cl)c2[nH]1` [Example 18, 4-(2-Chlorophenyl)-8-(2,6-dichlorophenyl)-1,7-naphthyridin-2(1H)-one 7-oxide], the IC50 was 15 nM. On to `CNc1cc(-c2ccccc2Cl)c2cc[n+]([O-])c(-c3c(Cl)cccc3Cl)c2n1` [Example 19, 4-(2-Chlorophenyl)-8-(2,6-dichlorophenyl)-N-methyl-1,7-naphthyridin-2-amine 7-oxide], for which the half-maximal inhibitory concentration (IC50) was 8 nM. Regarding `CN(C)c1cc(-c2ccccc2Cl)c2cc[n+]([O-])c(-c3c(Cl)cccc3Cl)c2n1` [Example 20, 4-(2-Chlorophenyl)-8-(2,6-dichlorophenyl)-N,N-dimethyl-1,7-naphthyridin-2-amine 7-oxide], the IC50 is 12 nM. In the case of `CS(=O)(=O)Nc1cc(-c2ccccc2Cl)c2cc[n+]([O-])c(-c3c(Cl)cccc3Cl)c2n1` [Example 21, N-[4-(2-Chlorophenyl)-8-(2,6-dichlorophenyl)-7-oxido-1,7-naphthyridin-2-yl]methanesulfonamide], the IC50 stood at 66 nM.

As for `Nc1cc(-c2ccccc2Cl)c2cc[n+]([O-])c(-c3c(Cl)cccc3Cl)c2n1` [Example 22, 4-(2-Chlorophenyl)-8-(2,6-dichlorophenyl)-1,7-naphthyridin-2-amine 7-oxide], the IC50 worked out at 85 nM. On to `[O-][n+]1ccc2c(-c3ccc(F)cc3Cl)ncnc2c1-c1c(F)cccc1F` [Example 26, 4-(2-Chloro-4-fluorophenyl)-8-(2,6-difluorophenyl)pyrido[3,4-d]pyrimidine 7-oxide], for which the IC50 was found to be 35 nM. Take `[O-][n+]1ccc2c(-c3ccc(F)cc3Cl)ncnc2c1-c1c(Cl)cccc1Cl` [Example 30, 4-(2-Chloro-4-fluorophenyl)-8-(2,6-dichlorophenyl)pyrido[3,4-d]pyrimidine 7-oxide]: the IC50 stood at 28 nM. For the molecule `Nc1nc(-c2ccc(F)cc2Cl)c2cc[n+]([O-])c(-c3c(Cl)cccc3Cl)c2n1` [Example 32, 4-(2-Chloro-4-fluorophenyl)-8-(2,6-dichlorophenyl)pyrido[3,4-d]pyrimidin-2-amine 7-oxide], the half-inhibitory concentration (IC50) is 34 nM.
